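Grown in 96-well plates, cells were treated for 48 hours with each compound at five concentrations. Insufficient inhibition: endpoint recorded as highest concentration tested. GI50: concentration for 50% inhibition of growth.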 Activity calls are given as the source filed them. No stated cut-off is given here; in the data, active = GI50 up to about 1.1 µM and inactive = higher.
Columns and labels:
Assay in all cases: growth of human tumour cells (NCI), 48 h
786-0 = tested on: 786-0
NCI/ADR-RES = tested on: NCI/ADR-RES
DU-145 = tested on: DU-145
HT-29 = tested on: HT-29
K562 = tested on: K562
Hs-578T = tested on: Hs-578T
SF-268 = tested on: SF-268
IGROV-1 = tested on: IGROV-1
HCT-15 = tested on: HCT-15
M14 = tested on: M14
Malme-3M = tested on: Malme-3M
SNB-75 = tested on: SNB-75
A498 = tested on: A498
SK-OV-3 = tested on: SK-OV-3
RPMI-8226 = tested on: RPMI-8226
OVCAR-5 = tested on: OVCAR-5
SNB-19 = tested on: SNB-19
T47D = tested on: T47D
EKVX = tested on: EKVX
KM-20L2 = tested on: KM-20L2

## CN1C(=O)CC2CCCN2C1=O (stereo unspecified)
786-0
  GI50: > 100 µM (inactive)
NCI/ADR-RES
  GI50: > 100 µM (inactive)
DU-145
  GI50: > 100 µM (inactive)
HT-29
  GI50: > 100 µM (inactive)
K562
  GI50: > 100 µM (inactive)
Hs-578T
  GI50: > 100 µM (inactive)
SF-268
  GI50: > 100 µM (inactive)
IGROV-1
  GI50: > 100 µM (inactive)
HCT-15
  GI50: > 100 µM
M14
  GI50: > 100 µM (inactive)
Malme-3M
  GI50: > 100 µM (inactive)
SNB-75
  GI50: > 100 µM (inactive)
A498
  GI50: > 100 µM (inactive)
SK-OV-3
  GI50: > 100 µM (inactive)
RPMI-8226
  GI50: > 100 µM (inactive)
OVCAR-5
  GI50: > 100 µM (inactive)
SNB-19
  GI50: > 100 µM (inactive)
T47D
  GI50: > 100 µM (inactive)
EKVX
  GI50: > 100 µM (inactive)

## O=C(O)c1ccc2c(c1)Cc1cc([N+](=O)[O-])ccc1-2
786-0
  GI50: > 100 µM (inactive)
NCI/ADR-RES
  GI50: > 100 µM (inactive)
DU-145
  GI50: > 100 µM (inactive)
HT-29
  GI50: > 100 µM (inactive)
K562
  GI50: 73.5 µM (inactive)
Hs-578T
  GI50: 76.9 µM (inactive)
SF-268
  GI50: > 100 µM (inactive)
IGROV-1
  GI50: > 100 µM (inactive)
HCT-15
  GI50: > 100 µM
M14
  GI50: > 100 µM (inactive)
Malme-3M
  GI50: > 100 µM (inactive)
SNB-75
  GI50: > 100 µM (inactive)
A498
  GI50: 44 µM (inactive)
SK-OV-3
  GI50: > 100 µM (inactive)
RPMI-8226
  GI50: 0.546 µM (active)
OVCAR-5
  GI50: > 100 µM (inactive)
SNB-19
  GI50: > 100 µM (inactive)
T47D
  GI50: > 100 µM (inactive)
EKVX
  GI50: > 100 µM (inactive)

## C/C(=N/NS(=O)(=O)c1c(C)cc(C)cc1C)c1cccc[n+]1[O-]
786-0
  GI50: > 100 µM (inactive)
HT-29
  GI50: > 100 µM (inactive)
K562
  GI50: > 100 µM (inactive)
SF-268
  GI50: > 100 µM (inactive)
IGROV-1
  GI50: > 100 µM (inactive)
HCT-15
  GI50: > 100 µM
M14
  GI50: > 100 µM (inactive)
SNB-75
  GI50: 76.2 µM (inactive)
A498
  GI50: > 100 µM (inactive)
SK-OV-3
  GI50: > 100 µM (inactive)
RPMI-8226
  GI50: > 100 µM (inactive)
OVCAR-5
  GI50: > 100 µM (inactive)
SNB-19
  GI50: > 100 µM (inactive)
KM-20L2
  GI50: > 100 µM (inactive)
EKVX
  GI50: > 100 µM (inactive)

## CN(C)C1=Nc2ccccc2C(=S)N2CSCC12 (stereo unspecified)
786-0
  GI50: 25.9 µM (inactive)
NCI/ADR-RES
  GI50: 73.8 µM (inactive)
DU-145
  GI50: > 100 µM (inactive)
HT-29
  GI50: 75.9 µM (inactive)
K562
  GI50: 12.8 µM (inactive)
Hs-578T
  GI50: 77.3 µM (inactive)
SF-268
  GI50: > 100 µM (inactive)
IGROV-1
  GI50: 19.1 µM (inactive)
HCT-15
  GI50: 34 µM
M14
  GI50: 66.2 µM (inactive)
Malme-3M
  GI50: 32.7 µM (inactive)
SNB-75
  GI50: 57.3 µM (inactive)
A498
  GI50: > 100 µM (inactive)
SK-OV-3
  GI50: > 100 µM (inactive)
RPMI-8226
  GI50: 51.4 µM (inactive)
OVCAR-5
  GI50: > 100 µM (inactive)
SNB-19
  GI50: > 100 µM (inactive)
T47D
  GI50: 89.5 µM (inactive)
EKVX
  GI50: 41.1 µM (inactive)

## O=C(CCCC1Cc2ccccc2C1=O)c1ccccc1 (stereo unspecified)
786-0
  GI50: > 100 µM (inactive)
NCI/ADR-RES
  GI50: 26.9 µM (inactive)
DU-145
  GI50: > 100 µM (inactive)
HT-29
  GI50: 42.2 µM (inactive)
K562
  GI50: 39.8 µM (inactive)
Hs-578T
  GI50: > 100 µM (inactive)
SF-268
  GI50: > 100 µM (inactive)
IGROV-1
  GI50: > 100 µM (inactive)
HCT-15
  GI50: 74.8 µM
M14
  GI50: 99.8 µM (inactive)
Malme-3M
  GI50: 44.2 µM (inactive)
SNB-75
  GI50: 70.5 µM (inactive)
A498
  GI50: 52.5 µM (inactive)
SK-OV-3
  GI50: > 100 µM (inactive)
RPMI-8226
  GI50: 46.9 µM (inactive)
OVCAR-5
  GI50: > 100 µM (inactive)
SNB-19
  GI50: 89.9 µM (inactive)
T47D
  GI50: 33.3 µM (inactive)
EKVX
  GI50: 65.2 µM (inactive)

## Clc1ccc(-c2c(C3=NCCCN3)nnn2-c2ccccc2)cc1
786-0
  GI50: > 100 µM (inactive)
HT-29
  GI50: 40.1 µM (inactive)
K562
  GI50: 41.7 µM (inactive)
SF-268
  GI50: > 100 µM (inactive)
IGROV-1
  GI50: > 100 µM (inactive)
HCT-15
  GI50: 43.6 µM
M14
  GI50: > 100 µM (inactive)
Malme-3M
  GI50: > 100 µM (inactive)
SNB-75
  GI50: > 100 µM (inactive)
A498
  GI50: > 100 µM (inactive)
SK-OV-3
  GI50: > 100 µM (inactive)
OVCAR-5
  GI50: 67 µM (inactive)
SNB-19
  GI50: > 100 µM (inactive)
KM-20L2
  GI50: 33.9 µM (inactive)
EKVX
  GI50: > 100 µM (inactive)

## Cc1ccc(C(=O)N2c3ccccc3N(C)n3cccc3C2CC(=O)O)cc1 (stereo unspecified)
786-0
  GI50: > 100 µM (inactive)
HT-29
  GI50: > 100 µM (inactive)
K562
  GI50: > 100 µM (inactive)
SF-268
  GI50: > 100 µM (inactive)
IGROV-1
  GI50: > 100 µM (inactive)
HCT-15
  GI50: > 100 µM
M14
  GI50: > 100 µM (inactive)
Malme-3M
  GI50: > 100 µM (inactive)
SNB-75
  GI50: > 100 µM (inactive)
A498
  GI50: > 100 µM (inactive)
RPMI-8226
  GI50: > 100 µM (inactive)
OVCAR-5
  GI50: > 100 µM (inactive)
SNB-19
  GI50: > 100 µM (inactive)
KM-20L2
  GI50: > 100 µM (inactive)
EKVX
  GI50: > 100 µM (inactive)

## O=C(Nc1ccc(Cl)cc1)C(=O)C1=C(O)c2ccccc2OC1
786-0
  GI50: > 100 µM (inactive)
NCI/ADR-RES
  GI50: > 100 µM (inactive)
DU-145
  GI50: > 100 µM (inactive)
HT-29
  GI50: > 100 µM (inactive)
K562
  GI50: > 100 µM (inactive)
Hs-578T
  GI50: > 100 µM (inactive)
SF-268
  GI50: > 100 µM (inactive)
IGROV-1
  GI50: > 100 µM (inactive)
HCT-15
  GI50: > 100 µM
M14
  GI50: > 100 µM (inactive)
Malme-3M
  GI50: 0.665 µM (active)
SNB-75
  GI50: 33.1 µM (inactive)
A498
  GI50: > 100 µM (inactive)
SK-OV-3
  GI50: > 100 µM (inactive)
RPMI-8226
  GI50: > 100 µM (inactive)
OVCAR-5
  GI50: > 100 µM (inactive)
SNB-19
  GI50: > 100 µM (inactive)
T47D
  GI50: > 100 µM (inactive)
EKVX
  GI50: > 100 µM (inactive)

## CCOC(=N)CC(=O)Nc1cccc(C)c1C
786-0
  GI50: > 100 µM (inactive)
HT-29
  GI50: > 100 µM (inactive)
K562
  GI50: > 10 µM (inactive)
SF-268
  GI50: > 100 µM (inactive)
IGROV-1
  GI50: > 100 µM (inactive)
M14
  GI50: > 100 µM (inactive)
Malme-3M
  GI50: > 100 µM (inactive)
SNB-75
  GI50: > 100 µM (inactive)
A498
  GI50: > 100 µM (inactive)
SK-OV-3
  GI50: > 100 µM (inactive)
OVCAR-5
  GI50: > 100 µM (inactive)
SNB-19
  GI50: > 100 µM (inactive)
KM-20L2
  GI50: > 100 µM (inactive)
EKVX
  GI50: > 100 µM (inactive)

## O=C(c1ccccc1)N1CCN(C(=S)N(C(=O)c2ccccc2)c2ccccc2)C1=S
786-0
  GI50: 2.09 µM (inactive)
NCI/ADR-RES
  GI50: 5.16 µM (inactive)
DU-145
  GI50: 3.01 µM (inactive)
HT-29
  GI50: 5.42 µM (inactive)
K562
  GI50: 2.41 µM (inactive)
Hs-578T
  GI50: 3.1 µM (inactive)
SF-268
  GI50: 3.45 µM (inactive)
IGROV-1
  GI50: 3.52 µM (inactive)
HCT-15
  GI50: 2.18 µM
M14
  GI50: 3.17 µM (inactive)
Malme-3M
  GI50: 5.13 µM (inactive)
SNB-75
  GI50: 2.16 µM (inactive)
A498
  GI50: 4.02 µM (inactive)
SK-OV-3
  GI50: 15.5 µM (inactive)
RPMI-8226
  GI50: 0.914 µM (active)
OVCAR-5
  GI50: 15.9 µM (inactive)
SNB-19
  GI50: 13.3 µM (inactive)
T47D
  GI50: 4.68 µM (inactive)
EKVX
  GI50: 5.92 µM (inactive)

## COc1cc(S(=O)(=O)Nc2ccc(-c3csc(N4C(=O)C(C)SC4c4ccccc4O)n3)cc2)ccc1Cl (stereo unspecified)
786-0
  GI50: 35.1 µM (inactive)
NCI/ADR-RES
  GI50: > 100 µM (inactive)
DU-145
  GI50: 41.3 µM (inactive)
HT-29
  GI50: 56.9 µM (inactive)
K562
  GI50: 32.8 µM (inactive)
Hs-578T
  GI50: 31.2 µM (inactive)
SF-268
  GI50: 21.3 µM (inactive)
IGROV-1
  GI50: 35.8 µM (inactive)
HCT-15
  GI50: 36.9 µM
M14
  GI50: 40.2 µM (inactive)
Malme-3M
  GI50: 17.9 µM (inactive)
SNB-75
  GI50: 28.8 µM (inactive)
A498
  GI50: > 100 µM (inactive)
SK-OV-3
  GI50: > 100 µM (inactive)
RPMI-8226
  GI50: 32.1 µM (inactive)
OVCAR-5
  GI50: 95.1 µM (inactive)
SNB-19
  GI50: > 100 µM (inactive)
T47D
  GI50: 13.3 µM (inactive)
EKVX
  GI50: 28.8 µM (inactive)

## CC(=O)OC(C)c1cc2c(s1)C(=O)c1ccsc1C2=O (stereo unspecified)
786-0
  GI50: 0.286 µM (active)
NCI/ADR-RES
  GI50: 0.271 µM (active)
DU-145
  GI50: 0.118 µM (active)
HT-29
  GI50: 0.17 µM (active)
K562
  GI50: 0.131 µM (active)
Hs-578T
  GI50: 0.154 µM (active)
SF-268
  GI50: 0.213 µM (active)
IGROV-1
  GI50: 0.659 µM (active)
HCT-15
  GI50: 0.124 µM
M14
  GI50: 0.129 µM (active)
Malme-3M
  GI50: 0.102 µM (active)
SNB-75
  GI50: 0.148 µM (active)
A498
  GI50: 1.82 µM (inactive)
SK-OV-3
  GI50: 2.07 µM (inactive)
RPMI-8226
  GI50: 0.0826 µM (active)
OVCAR-5
  GI50: 0.458 µM (active)
SNB-19
  GI50: 0.166 µM (active)
T47D
  GI50: 0.437 µM (active)
EKVX
  GI50: 0.773 µM (active)
